Assay results published in paper PMC8508980, “Design, Synthesis and Anticancer Profile of New 4-(1H-benzo[d]imidazol-1-yl)pyrimidin-2-amine-Linked Sulfonamide Derivatives with V600EBRAF Inhibitory Effect” (International Journal of Molecular Sciences, 2021).

How the values were obtained:
Type in all cases: cell-based
A375 cells = assay: Antiproliferative MTT assay; conditions: Homo sapiens, A-375, 48 h, mean ± S.D. of two experiments
Experimental: (§1) The effect of final target compounds over A375 and SK-MEL-5 was performed using reported procedures (detailed procedure is located in the Supplementary Information page 51s). […]
(§2) Evaluation of the Antiproliferative Activity Against A375 and SK-MEL-5
(§3) A375 and SK-MEL-5 cells were purchased from American Type Culture Collection (ATCC, Ro ckv ille, MD, USA) and maintained in Dulbecco’s modified eagle medium (DMEM, Welgene, Daegu, Republic of Korea) supplemented with 10% fetal bovine serum (FBS, Welgene, Daegu, Republic of Korea) and 1% penicillin/streptomycin (Welgene, Daegu, Republic of Korea) in a hu midified atmo sphere with 5% CO2 at 37 °C. Both cells were taken from culture substrate with 0.05% trypsin-0.02% EDTA and plated at a density of 5 × 10^3 cells/well in 96 well plates and then incubated at 37 °C fo r 24 h in a hu midified atmo sphere with 5% CO2 prior to treatment with various concentrations (3-fold serial dilution, 12 points) of the tested compounds. The cells were incubated for 48 h after treatment with the test compounds. The cell viability was assessed by the conventional 3-(4,5-dimethylthiazol-2-yl)-2,5-diphenyltetrazolium bromide (MTT) reduction assay. MTT assays were carried out with CellTiter 96® (Promega) according to the manufacturer’s instructions. The absorbance at 590 nm was recorded using EnVision 2103 (Perkin Elmer; Bo ston , MA, USA). The IC50 values were calculated using GraphPad Prism 4.0

SK-MEL-5 cells = assay: Antiproliferative MTT assay; conditions: Homo sapiens, 48 h, mean ± S.D. of two experiments
Experimental: as §1, §2, §3

OVCAR-5 = assay: NCI 60 cell line screen; conditions: Homo sapiens; OVCAR-5, Ovarian Cancer; read-out: Percent growth
How it was run: (§4)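 Read-out was SRB staining of TCA-fixed cells at 515 nm, with growth computed against time-zero (Tz) and untreated control plates; TGI was taken where Ti = Tz. Drugs were tested at five concentrations up to 10 µM for 48 h at 37 °C, added 24 h after plating in RPMI 1640/5% FBS.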

SK-MEL-2 = assay: NCI 60 cell line screen; conditions: Homo sapiens; SK-MEL-2, Melanoma; read-out: Percent growth
How it was run: as §4

SF-539 = assay: NCI 60 cell line screen; conditions: Homo sapiens; SF-539, CNS-Cancer; read-out: Percent growth
How it was run: as §4

SF-268 = assay: NCI 60 cell line screen; conditions: Homo sapiens; SF-268, CNS-Cancer; read-out: Percent growth
How it was run: as §4

OVCAR-8 = assay: NCI 60 cell line screen; conditions: Homo sapiens; OVCAR-8, Ovarian Cancer; read-out: Percent growth
How it was run: as §4

MDA-MB-435 = assay: NCI 60 cell line screen; conditions: Homo sapiens; MDA-MB-435, Melanoma; read-out: Percent growth
How it was run: as §4

SW-620 = assay: NCI 60 cell line screen; conditions: Homo sapiens; SW-620, Colon Cancer; read-out: Percent growth
How it was run: as §4

BT-549 = assay: NCI 60 cell line screen; conditions: Homo sapiens; BT-549, Breast Cancer; read-out: Percent growth
How it was run: as §4

NCI-H322M = assay: NCI 60 cell line screen; conditions: Homo sapiens, Non-Small Cell Lung Cancer, read-out: Percent growth
How it was run: as §4

HCT-116 = assay: NCI 60 cell line screen; conditions: Homo sapiens; HCT-116, Colon Cancer; read-out: Percent growth
How it was run: as §4

Row | SMILES | IC50 (A375 cells) [µM] | IC50 (SK-MEL-5 cells) [µM] | activity at 10 µM (OVCAR-5) [%] | activity at 10 µM (SK-MEL-2) [%] | activity at 10 µM (SF-539) [%] | activity at 10 µM (SF-268) [%] | activity at 10 µM (OVCAR-8) [%] | activity at 10 µM (MDA-MB-435) [%] | activity at 10 µM (SW-620) [%] | activity at 10 µM (BT-549) [%] | activity at 10 µM (NCI-H322M) [%] | activity at 10 µM (HCT-116) [%]
1 | O=S(=O)(NCCCNc1nccc(-n2cnc3ccccc32)n1)c1ccc(F)cc1 [12i, N-(3-((4-(1H-benzo [d]imidazol-1-yl)pyrimidin-2-yl)amino)propyl)-4-fluorobenzenesulfonamide] | 1.95 ± 0.13 | 2.36 ± 0.21 | 98.6 | 85.8 | 86.2 | 86.3 | 62.5 | 64.6 | 96.2 | 34.9 | 99.5 | 58.7
2 | O=S(=O)(NCCNc1nccc(-n2cnc3ccccc32)n1)c1ccc(F)cc1 [12b, N-(2-((4-(1H-benzo [d]imidazol-1-yl)pyrimidin-2-yl)amino)ethyl)-4-fluorobenzenesulfonamide] | 10.5 ± 0.22 | 15.6 ± 0.37 | 86.6 | 101 | 83.7 | 88.2 | 89 | 97.7 | 100 | 82.2 | 95.6 | 83.6
3 | O=S(=O)(NCCNc1nccc(-n2cnc3ccccc32)n1)c1ccc(Br)cc1 [12d, N-(2-((4-(1H-benzo [d]imidazol-1-yl)pyrimidin-2-yl)amino)ethyl)-4-bromobenzenesulfonamide] | 11.8 ± 0.71 | 19.7 ± 0.51 | 94 | 108 | 96.2 | 91.2 | 95.6 | 108 | 110 | 115 | 107 | 99.8
4 | Cc1ccc(S(=O)(=O)NCCNc2nccc(-n3cnc4ccccc43)n2)cc1 [12g, N-(2-((4-(1H-benzo [d]imidazol-1-yl)pyrimidin-2-yl)amino)ethyl)-4-methyl benzenesulfonamide] | 7.22 ± 0.23 | 8.25 ± 0.12 | 87.8 | 87.7 | 79.7 | 68.8 | 79.8 | 84.1 | 90.8 | 63.7 | 94.4 | 64.1
5 | O=S(=O)(NCCNc1nccc(-n2cnc3ccccc32)n1)c1ccccc1 [12a, N-(2-((4-(1H-benzo [d]imidazol-1-yl)pyrimidin-2-yl)amino)ethyl)benzenesulfonamide] | 12.8 ± 0.41 | 20.4 ± 0.86 | 92.5 | 115 | 96.1 | 94.1 | 98 | 109 | 112 | 106 | 94.9 | 94.6
6 | O=S(=O)(NCCCNc1nccc(-n2cnc3ccccc32)n1)c1cccc2ccccc12 [12n, N-(3-((4-(1H-benzo [d]imidazol-1-yl)pyrimidin-2-yl)amino)propyl)naphthalene-1-sulfonamide] | 16.9 ± 0.81 | 17.9 ± 0.62 | 96.3 | 97.8 | 87.9 | 86.8 | 82.5 | 93.4 | 106 | 88.2 | 103 | 75.9
7 | O=S(=O)(NCCCNc1nccc(-n2cnc3ccccc32)n1)c1ccccc1 [12h, N-(3-((4-(1H-benzo [d]imidazol-1-yl)pyrimidin-2-yl)amino)propyl)benzenesulfonamide] | 9.26 ± 0.16 | 11.3 ± 0.29 | 99.1 | 108 | 89.4 | 91.7 | 84 | 95.5 | 107 | 96.5 | 109 | 90.3
8 | O=S(=O)(NCCNc1nccc(-n2cnc3ccccc32)n1)c1ccc(Cl)cc1 [12c, N-(2-((4-(1H-benzo [d]imidazol-1-yl)pyrimidin-2-yl)amino)ethyl)-4-chlorobenzenesulfonamide] | 11 ± 0.36 | 17.6 ± 0.49 | 91.7 | 109 | 91.2 | 92.3 | 102 | 100 | 100 | 99.3 | 95.3 | 94.6
9 | O=S(=O)(NCCCNc1nccc(-n2cnc3ccccc32)n1)c1ccc(Br)cc1 [12k, N-(3-((4-(1H-benzo [d]imidazol-1-yl)pyrimidin-2-yl)amino)propyl)-4-bromo benzenesulfonamide] | 12 ± 0.47 | 13.5 ± 0.39 | 97 | 105 | 85.2 | 91.2 | 82.5 | 92.6 | 106 | 80.8 | 103 | 90.3
10 | O=S(=O)(NCCNc1nccc(-n2cnc3ccccc32)n1)c1ccc(C(F)(F)F)cc1 [12e, N-(2-((4-(1H-benzo [d]imidazol-1-yl)pyrimidin-2-yl)amino)ethyl)-4-(trifluoromethyl)benzenesulfonamide] | 2.89 ± 0.14 | 6.54 ± 0.18 | 86.2 | 67.8 | 64.8 | 59.5 | 63.5 | 64.4 | 83.5 | 53.1 | 85.3 | 40.1
11 | COc1ccc(S(=O)(=O)NCCNc2nccc(-n3cnc4ccccc43)n2)cc1 [12f, N-(2-((4-(1H-benzo [d]imidazol-1-yl)pyrimidin-2-yl)amino)ethyl)-4-methoxy benzenesulfonamide] | 12.6 ± 0.44 | 18.7 ± 0.69 | 93.9 | 106 | 96.2 | 86.7 | 91.5 | 96.6 | 103 | 97.8 | 92.6 | 98
12 | O=S(=O)(NCCCNc1nccc(-n2cnc3ccccc32)n1)c1ccc(C(F)(F)F)cc1 [12l, N-(3-((4-(1H-benzo [d]imidazol-1-yl)pyrimidin-2-yl)amino)propyl)-4-(trifluoromethyl) benzenesulfonamide] | 1.85 ± 0.11 | 2.02 ± 0.09 | 87.2 | 91 | 74.5 | 66.5 | 60 | 72.1 | 99.5 | 62.9 | 89.9 | 65.6
